Measurements from US20090221567A1, “MUSCARINIC RECEPTOR AGONISTS, COMPOSITIONS, METHODS OF TREATMENT THEREOF, AND PROCESSES FOR PREPARATION THEREOF 177” (ASTRAZENECA AB, priority 2008, published 2009).

Key:
[1] = biological target: T1, human M4 receptor (human Muscarinic receptor subtype 4) (Homo sapiens, UniProt P08173); test: hM4 receptor GTPγS binding; format: biochemical; settings: CHO membranes, [35S]GTPγS binding
T1 construct: purchased Perkin-Elmer RBHM4M; host or cells: membranes from CHO cells expressing the cloned receptor
T1 sequence (P08173 1-479): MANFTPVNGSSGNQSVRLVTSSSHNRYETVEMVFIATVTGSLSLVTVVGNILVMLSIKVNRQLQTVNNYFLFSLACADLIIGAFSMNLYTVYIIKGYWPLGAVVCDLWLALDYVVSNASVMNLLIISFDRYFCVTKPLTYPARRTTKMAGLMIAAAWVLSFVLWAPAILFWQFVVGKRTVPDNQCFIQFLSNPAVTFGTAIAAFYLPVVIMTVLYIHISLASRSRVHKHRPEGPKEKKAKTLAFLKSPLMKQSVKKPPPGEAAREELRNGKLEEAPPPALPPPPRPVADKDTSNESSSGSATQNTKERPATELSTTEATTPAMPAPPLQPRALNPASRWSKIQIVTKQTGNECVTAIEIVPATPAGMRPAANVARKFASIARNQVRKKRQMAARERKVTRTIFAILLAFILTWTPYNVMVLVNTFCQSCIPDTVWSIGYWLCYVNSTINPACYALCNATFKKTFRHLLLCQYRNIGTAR
Procedure: Membranes produced from Chinese hamster ovary cells (CHO) expressing the cloned human M4 receptor (human Muscarinic receptor subtype 4, gene bank access NM_000741), are obtained from Perkin-Elmer (RBHM4M). The membranes are thawed at 37° C., passed 3 times through a 23-gauge blunt-end needle, diluted in the GTPγS binding buffer (50 mM Hepes, 20 mM NaOH, 100 mM NaCl, 1 mM EDTA, 5 mM MgCl2, pH 7.4, 100 μM DTT). The EC50, IC50 and Emax of the compounds of the invention are evaluated from 10-point dose-response curves (three fold concentration range) done in 60 μl in 384-well non-specific binding surface plate (Corning). Ten microliters from the dose-response curves plate (5× concentration) are transferred to another 384 well plate containing 25 μl of the following: 10 μg of hM4 membranes, 500 μg of Flashblue beads (Perkin-Elmer) and GDP 40 μM. An additional 15 μl containing 3.3× (60,000 dpm) of GTPγS (0.4 nM final) are added to the wells resulting in a total well volume of 50 μl. Basal and maximal stimulated [^35S]GTPγS binding are determined in absence and presence of 30 μM final of acetylcholine agonist. The membranes/beads mix are pre-incubated for 15 minutes at room temperature with 40 μM GDP prior to distribution in plates (20 μM final). The reversal of acetylcholine-induced stimulation (10 μM final) of [^35S]GTPγS binding is used to assay the antagonist properties (IC50) of the compounds. The plates are incubated for 60 minutes at room temperature then centrifuged at 400 rpm for 5 minutes. The radioactivity (cpm) is counted in a Trilux (Perkin-Elmer).
Values of EC50, IC50 and Emax are obtained using sigmoidal fits of a non-linear curve-fitting program (XLfit version 4.2.2 Excel add-in version 4.2.2 build 18 math 1Q version 2.1.2 build 18) of percent stimulated [^35S]GTPγS binding vs. log(molar ligand). All pEC50 and pIC50 values are reported as arithmetic means±standard error of mean of ‘n’ independent experiments.

[2] = biological target: T2, hM5 (human Muscarinic receptor subtype 5) (Homo sapiens, UniProt P08912); test: Human M5 calcium mobilization FLIPR assay; format: cell-based; settings: receptor expressed in CHO cells, intracellular Ca2+ release
T2 construct: expressed in transfected cells; host or cells: CHO cells (Chinese hamster ovary cells, ATCC)
T2 sequence (P08912 1-532): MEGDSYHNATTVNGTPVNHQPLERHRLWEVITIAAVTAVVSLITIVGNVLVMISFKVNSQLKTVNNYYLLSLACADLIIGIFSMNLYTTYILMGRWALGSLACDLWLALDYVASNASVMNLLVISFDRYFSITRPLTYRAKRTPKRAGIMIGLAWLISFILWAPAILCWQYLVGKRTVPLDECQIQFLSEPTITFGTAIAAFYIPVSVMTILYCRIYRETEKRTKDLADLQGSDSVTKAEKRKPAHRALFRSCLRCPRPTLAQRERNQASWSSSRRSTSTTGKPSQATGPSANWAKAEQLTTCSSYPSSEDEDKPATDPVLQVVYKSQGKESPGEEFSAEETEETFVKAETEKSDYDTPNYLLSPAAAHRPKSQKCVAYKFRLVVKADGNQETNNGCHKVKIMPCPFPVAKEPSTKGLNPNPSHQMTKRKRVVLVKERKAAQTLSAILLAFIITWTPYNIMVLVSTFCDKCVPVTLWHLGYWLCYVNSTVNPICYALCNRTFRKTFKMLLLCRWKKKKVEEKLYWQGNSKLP
Procedure: The compound activity in the present invention (EC50 or IC50) is measured using a 384 plate-based imaging assay that monitors drug induced intracellular Ca^2+ release in whole cells. Activation of hM1 (human Muscarinic receptor subtype 1, gene bank access NM_000738), rM1 (rat Muscarinic receptor subtype 1, gene bank access NM_080773), hM3 (human Muscarinic receptor subtype 3, gene bank access NM_000740NM_000740) and hM5 (human Muscarinic receptor subtype 5, gene bank access NM_0121258), receptors expressed in CHO cells (Chinese hamster ovary cells, ATCC) is quantified in a Molecular Devices FLIPR IITM instrument as an increase in fluorescent signal. Inhibition of hM3 and hM5 by compounds is determined by the decrease in fluorescent signal in response to 2 nM acetylcholine activation.
Prior to experiment, the cell culture medium is removed from the plates by inversion. […] Plates are incubated at 37° C. for 60 minutes prior to start the experiment. The incubation is terminated by washing the cells four times in assay buffer, leaving a residual 25 μl buffer per well. Cell plates are then transferred to the FLIPR, ready for compound additions.
The day of experiment, acetylcholine and compounds are diluted in assay buffer in three-fold concentration range (10 points serial dilution) for addition by FLIPR instrument. For all calcium assays, a baseline reading is taken for 10 seconds followed by the addition of 12.5 μl of compounds, resulting in a total well volume of 37.5 μl. Data is collected every second for 60 pictures and then every 6 seconds for 20 pictures prior to the addition of agonist. For hM3 and hM5, before agonist addition, a second baseline reading is taken for 10 seconds followed by the addition of 12.5 μl of agonist or buffer, producing a final volume of 50 μl. After agonist stimulation, the FLIPR continues to collect data every second for 60 pictures and then every 6 seconds for 20 pictures. The fluorescence emission is read using filter 1 (emission 510-570 nm) by the FLIPR on board CCD camera.
Calcium mobilization output data are calculated as the maximal relative fluorescence unit (RFU) minus the minimal value for both compound and agonist reading frame (except for hM1 and rM1 using only the maximal RFU). Data are analyzed using sigmoidal fits of a non-linear curve-fitting program (XLfit version 4.2.2 Excel add-in version 4.2.2 build 18 math 1Q version 2.1.2 build 18). All pEC50 and pIC50 values are reported as arithmetic means±standard error of mean of ‘n’ independent experiments.

Row | SMILES | EC50 [1] [µM] | EC50 [2] [µM]
1 | Cc1ccccc1C(=O)N1CCC(N2CCC(N3C(=O)NC[C@H]4CCCC[C@@H]43)CC2)CC1 [Example 4, (4aR,8aS)-1-[1-[1-(2-methylbenzoyl)-4-piperidyl]-4-piperidyl]-3,4,4a,5,6,7,8,8a-octahydroquinazolin-2-one] | > 30 | > 49.2
2 | CC(C)OC(=O)N1CCC(N2CCC(N3C(=O)N(C)C[C@H]4CCCC[C@@H]43)CC2)CC1 [Example 6, Propan-2-yl 4-[4-[(4aR,8aS)-3-methyl-2-oxo-4a,5,6,7,8,8a-hexahydro-4H-quinazolin-1-yl]-1-piperidyl]piperidine-1-carboxylate] | > 30 | > 40
3 | CC(C)OC(=O)N1CCC(C)(N2CCC(N3C(=O)NC[C@H]4CCCC[C@@H]43)CC2)CC1 [Example 8, Propan-2-yl 4-[4-[(4aR,8aS)-2-oxo-3,4,4a,5,6,7,8,8a-octahydroquinazolin-1-yl]-1-piperidyl]-4-methyl-piperidine-1-carboxylate] | > 30 | > 40
4 | CC(C)OC(=O)N1CCC(N2CCC(N3C(=O)CO[C@H]4CCCC[C@@H]43)CC2)CC1 [Example 10, Propan-2-yl 4-[4-[(1S,6S)-9-oxo-7-oxa-10-azabicyclo[4.4.0]dec-10-yl]-1-piperidyl]piperidine-1-carboxylate] | > 30 | > 40
5 | Cc1ccccc1C(=O)N1CCC(N2CCC(N3C(=O)CO[C@H]4CCCC[C@@H]43)CC2)CC1 [Example 11, (1S,6S)-10-[1-[1-(2-methylbenzoyl)-4-piperidyl]-4-piperidyl]-7-oxa-10-azabicyclo[4.4.0]decan-9-one] | > 30 | > 40
6 | Cn1cccc1C(=O)N1CCC(N2CCC(N3C(=O)CO[C@H]4CCCC[C@@H]43)CC2)CC1 [Example 12, (1S,6S)-10-[1-[1-(1-methylpyrrole-2-carbonyl)-4-piperidyl]-4-piperidyl]-7-oxa-10-azabicyclo[4.4.0]decan-9-one] | > 30 | > 40
7 | CCOC(=O)N1CC[C@H](N2CCC(N3C(=O)CO[C@H]4CCCC[C@@H]43)CC2)C1 [Example 13, Ethyl (3S)-3-[4-[(1S,6S)-9-oxo-7-oxa-10-azabicyclo[4.4.0]dec-10-yl]-1-piperidyl]pyrrolidine-1-carboxylate] | > 30 | > 40
8 | CC(C)OC(=O)N1CCC(N2CCC(N3C(=O)CO[C@@H]4CCCC[C@H]43)CC2)CC1 [Example 14, Propan-2-yl 4-[4-[(1R,6R)-9-oxo-7-oxa-10-azabicyclo[4.4.0]dec-10yl]-1-piperidyl]piperidine-1-carboxylate] | > 30 | > 40
9 | CCOC(=O)N1CCC(N2CCC(N3C(=O)OC[C@H]4CCCC[C@@H]43)CC2)CC1 [Example 15, Ethyl 4-[4-[(1S,6S)-9-oxo-8-oxa-10-azabicyclo[4.4.0]dec-10-yl]-1-piperidyl]piperidine-1-carboxylate] | > 30 | > 40

More lines, now with the values ahead:

Row | EC50 [1] [µM] | EC50 [2] [µM] | SMILES
10 | 8.97 | > 40 | CCOC(=O)N1CCC(C)(N2CCC(N3C(=O)CO[C@H]4CCCC[C@@H]43)CC2)C1 (single isomer, unassigned) [Example 18]
11 | > 30 | > 40 | CCOC(=O)N1CCC(C)(N2CCC(N3C(=O)CO[C@H]4CCCC[C@@H]43)CC2)C1 (single isomer, unassigned) [Example 19]
12 | 1.7 | – | CCOC(=O)N1CCC(N2CCC(N3C(=O)NC[C@H]4CCCC[C@@H]43)CC2)CC1 [Example 1, Ethyl 4-[4-[(4aR,8aS)-2-oxo-3,4,4a,5,6,7,8,8a-octahydroquinazolin-1-y]-1-piperidyl]piperidine-1-carboxylate]
13 | > 20 | > 49.2 | CC(C)OC(=O)N1CCC(N2CCC(N3C(=O)NC[C@H]4CCCC[C@@H]43)CC2)CC1 [Example 2, Propan-2-yl 4-[4-[(4aR,8aS)-2-oxo-3,4,4a,5,6,7,8,8a-octahydroquinazolin-1-yl]-1-piperidyl]piperidine-1-carboxylate]
14 | > 30 | > 31.1 | O=C(C1CC1)N1CCC(N2CCC(N3C(=O)NC[C@H]4CCCC[C@@H]43)CC2)CC1 [Example 3, (4aR,8aS)-1-[1-[1-(cyclopropanecarbonyl)-4-piperidyl]-4-piperidyl]-3,4,4a,5,6,7,8,8a-octahydroquinazolin-2-one]
15 | > 1.6 | 0.168 | CCOC(=O)N1CCC(C)(N2CCC(N3C(=O)NC[C@H]4CCCC[C@@H]43)CC2)CC1 [Example 7, Ethyl 4-[4-[(4aR,8aS)-2-oxo-3,4,4a,5,6,7,8,8a-octahydroquinazolin-1-yl]-1-piperidyl]-4-methyl-piperidine-1-carboxylate]
16 | 4.3 | 0.0977 | CCOC(=O)N1CCC(N2CCC(N3C(=O)CO[C@H]4CCCC[C@@H]43)CC2)CC1 [Example 9, Ethyl 4-[4-[(1S,6S)-9-oxo-7-oxa-10-azabicyclo[4.4.0]dec-10-yl]-1-piperidyl]piperidine-1-carboxylate]
